This passage reports RP-LC retention time results from the METLIN SMRT retention time set (Domingo-Almenara et al. 2019).

The data set is described as follows: gradient 5% acetonitrile 3 min, to 50% in 2 min, to 85% in 15 min, held 3 min, 100 µL/min. The conditions noted are these: column: Zorbax Extend-C18 2.1 x 50 mm; eluents: water / acetonitrile, 0.1% formic acid. The essentials: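 Over 3 months, pure standards in mixtures of ~100 molecules were run by HPLC coupled to a quadrupole time-of-flight mass spectrometer in positive and negative ionization mode. The column was a Zorbax Extend-C18 (2.1 × 50 mm, 1.8 μm) at 100 μL/min, eluted with water and acetonitrile each holding 0.1% formic acid, with 40 μL dead and 900 μL dwell volumes. Retention time was determined from adduct peaks chosen by software and checked manually.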
In turn, `CC1CC(=O)N(CC(=O)Nc2ccc(F)cc2F)c2ccccc2S1` (stereo not drawn) had an RP-LC retention time of 914 s.
The same measure for `Cc1cc(C2CCCN2C(=O)Nc2ccccc2Cl)on1` (stereo not drawn): 830 s; for `O=S(=O)(CCCOc1ccc2c(c1)OCO2)NCCC1=CCCCC1`: 1000 s; for `O=C(Nc1ccc2c(c1)OCCO2)C1CCCN(C(=O)c2cc(-c3ccncc3)n[nH]2)C1` (stereo not drawn): 584 s.
`Cc1ccnc(N2CCC(C(=O)Nc3ccc(Br)cc3F)CC2)n1` gave an RP-LC retention time of 811 s.
In turn, `CCN(c1ccccc1C)S(=O)(=O)c1cc(-c2[nH]ncc2C(=O)N(C)C)oc1C` displayed an RP-LC retention time of 782 s.
The figure for `COc1ccc(NC(=O)N2CCC(Cc3nc4cccnc4n3C(C)C)C2)c(OC)c1` (stereo not drawn) is 626 s.
The same measure for `COc1ccc(NS(=O)(=O)c2cc3c(s2)CCN(C(=O)C2CC2)C3)cc1Cl`: 826 s.
The figure for `CCc1ccc(NC(=O)CSc2ccc(N3CCCC(C(=O)NC4CC4)C3)nn2)cc1` (stereo not drawn) is 695 s.
`COCCN1C(=O)c2ccccc2C(C(=O)Nc2ccccc2OC)C12CCCC2` (stereo not drawn): the RP-LC retention time was 905 s.
The figure for `CCn1cc(S(=O)(=O)Nc2ccc(C)c(C)c2)c2cccnc21` is 887 s; for `Cc1cc(Cl)ccc1S(=O)(=O)N1CC(Cc2nncn2C2CCCC2)C1` it is 808 s; for `COC(=O)C1=CN(C2CC2)c2cc(N3CCC(C)CC3)c(F)cc2S1(=O)=O` it is 1010 s.
The same measure for `CCN1C(=O)COc2ccc(-c3nc(NC(=O)C(C)(C)C)sc3C)cc21`: 643 s; for `CC(C)n1nc(CO)c2c1CCN(C(=O)C1COc3ccccc3O1)C2` (stereo not drawn): 667 s.
The same measure for `O=c1c2cc3c(cc2nc(SCc2nc(-c4ccc(F)cc4)no2)n1-c1ccc(F)cc1)OCO3`: 1170 s.
For the compound `CCCN1CCN(C(=O)c2nc(N3CCCCC3)c3c(C)cc(C)nc3n2)CC1`, the RP-LC retention time was 566 s.
The same measure for `Cc1nc2cccnc2n1CC1CCCN(S(=O)(=O)c2cc(F)ccc2F)C1` (stereo not drawn): 703 s; for `c1nc(NC2CCCCCC2)c2[nH]cnc2n1`: 564 s.
The figure for `CCc1nc2cc(-c3noc(CNC(=O)c4ccccc4)n3)ccc2o1` is 821 s.
The figure for `C=C1[C@@H](C)[C@H]2[C@H](Cc3ccccc3)NC(=O)C23[C@H](OC(C)=O)/C=C/[C@](C)(O)C(=O)[C@@H](C)C/C=C/[C@H]3[C@@H]1O` (stereo partly drawn) is 801 s; for `O=C(NCc1cccc2ccccc12)NCC1CCN(C(=O)Oc2ccccc2)CC1` it is 866 s; for `COc1ccc(N2CC(c3nc(-c4ccc(Cl)cc4)no3)CC2=O)cc1` (stereo not drawn) it is 998 s.
Regarding `COc1ccc(-c2cc3n(n2)CCCN(S(=O)(=O)c2ccc(C(C)=O)cc2)C3)cc1`, the RP-LC retention time was determined as 882 s.
The same measure for `Cc1nn(-c2ccc(-c3ccccc3)nn2)c(C)c1S(=O)(=O)N1CCN(C)CC1`: 644 s; for `COc1ccccc1CCC(=O)N1CCCn2nc(-c3cccs3)cc2C1`: 702 s; for `Cc1cc(=O)n(CC(=O)NCc2ccccc2)c(N2CCCC2)n1`: 606 s.
The figure for `COc1ccc(Cl)cc1NC(=O)Nc1ccc2c(c1)C(=O)N(C)CCO2` is 766 s; for `Cc1ccc(-c2nc3sc(N4CCCCC4)nn3c2NC(=O)C2CCCO2)cc1` (stereo not drawn) it is 901 s; for `CCn1cc(CCNS(=O)(=O)c2cccc(F)c2)c2cccnc21` it is 774 s.
The figure for `Cc1cccc(-c2nc(-c3ccc(-n4cccn4)nc3)no2)c1` is 1330 s.
`Cc1ccc(C)c(C(=O)N2CCCC(c3nc(CNC(=O)C4CCC4)cs3)C2)c1` (stereo not drawn) registered an RP-LC retention time of 748 s.
The same measure for `CC(C)CNC(=O)N1c2ccccc2CC1c1nc(C2CC2)no1` (stereo not drawn): 925 s; for `O=C(Cc1nnc(-c2cccc(F)c2)o1)NC1CCCC1`: 746 s; for `COc1ncccc1C(=O)Nc1onc2c1CSC2`: 642 s.
The same measure for `O=C(c1cc2cc(Br)ccc2oc1=O)N1CCN(c2ccccn2)CC1`: 616 s; for `CCOC(=O)CC1=CC(SCC(=O)N(C)c2ccccc2)=Nc2ccccc2N1`: 1100 s.
`C=CCN1C(=O)COc2ccc(-c3nc(NC(=O)COC)sc3C)cc21` returned an RP-LC retention time of 836 s.
Turning to `COc1ccc(NC(=O)c2cccs2)c([N+](=O)[O-])c1`, the RP-LC retention time is 860 s.
The same measure for `CCc1cccc(NC(=O)C2CCN(S(=O)(=O)c3ccc4c(c3)CC(C)N4C(C)=O)CC2)c1` (stereo not drawn): 942 s; for `O=C(CSc1ccc(N2CCCC(C(=O)NC3CC3)C2)nn1)NCc1ccccc1` (stereo not drawn): 603 s; for `COc1ccc(N2CCN(c3cc(SCC(=O)Nc4cc(F)ccc4C)ncn3)CC2)cc1`: 1040 s.
For `O=C(NCCC1=CCCCC1)C1CCN(C(=O)c2ncn3c2COC(c2ccc(Cl)cc2)C3)CC1` (stereo not drawn), the RP-LC retention time came out at 911 s.
The same measure for `Cc1nn(-c2ccccc2)c(C)c1S(=O)(=O)N1CCC(C(=O)NCc2cccs2)CC1`: 876 s.
The same measure for `CCc1noc(NC(C)=O)c1-c1ccc(OC)c(S(=O)(=O)Nc2ccc(OC)c(OC)c2)c1`: 688 s.
Turning to `CC(=O)N1CCc2sc(S(=O)(=O)N3CCN(c4ccccc4)CC3)cc2C1`, the RP-LC retention time was 884 s.
The same measure for `CN(C)S(=O)(=O)c1ccc(-c2nnc(C(=O)NCc3ccc(F)c(Cl)c3)o2)cc1`: 898 s; for `CC(C)Cn1c(=O)c2ccccc2n(Cc2nc(-c3ccc(Cl)cc3)no2)c1=O`: 1240 s.
The figure for `Cn1c(N2CCCC(C(=O)N3CCN(c4ccc(Cl)cc4)CC3)C2)cc(=O)n(C)c1=O` (stereo not drawn) is 800 s.
Turning to `O=C(Nc1cccc(C(F)(F)F)c1)c1ccc(-n2cnc(NC(=O)C3CC3)c2)cc1`, the RP-LC retention time was found to be 872 s.
The figure for `COc1ccccc1NC(=O)C1Cc2ccccc2CN1S(=O)(=O)c1ccccc1` (stereo not drawn) is 1070 s; for `CCCNC(=O)Cc1cn2cc(Br)ccc2n1` it is 570 s; for `NC(=O)c1ccsc1NC(=O)c1c(F)cccc1Cl` it is 706 s.
The figure for `CCOc1ccc(NC(=O)C2CC(=O)N(CCc3c[nH]c4ccc(F)cc34)C2)cc1` (stereo not drawn) is 811 s; for `CCn1cc(-c2nc(C(=O)Nc3ccc(Cl)cc3F)cs2)c2cccnc21` it is 1350 s; for `Cc1nc(N2CCN(c3ccccn3)CC2)nc2c1C(=O)CC(c1cccc(Cl)c1)C2` (stereo not drawn) it is 838 s.
`Cc1nc2c(c(C)c1CCC(=O)NCC1CCN(CC(C)C)C1)c(=O)n(C)c(=O)n2C` (stereo not drawn) registered an RP-LC retention time of 610 s.
The figure for `CCCNc1cc(N2CCC(CCC(=O)NCc3ccc(N4CCOCC4)cc3)CC2)ncn1` is 631 s; for `CCCn1c(=O)c(C)nc2cc(-c3noc(Cc4ccc(OC)c(OC)c4)n3)ccc21` it is 930 s.
The figure for `Cc1noc(C)c1CN1CCN(C(=O)CSc2ccc(F)cc2)CC1` is 570 s; for `CC(C)C(=O)Nc1ccc(C(=O)NCCNS(=O)(=O)c2ccc(F)c(Cl)c2)cc1` it is 720 s.
`CCOc1nccnc1NC1CCN(C(=O)Cc2cccs2)CC1` had an RP-LC retention time of 740 s.
In the case of `CCOc1ccc(-c2noc(Cn3nc(-c4ccc(CC)cc4)ccc3=O)n2)cc1`, the RP-LC retention time was 597 s.
The figure for `Cc1ccc(CN2CCN(C3CCN(C(=O)Nc4cccc(C)c4)CC3)C(=O)C2=O)cc1` is 740 s.
The figure for `CCCn1c(C)c(C)c(S(=O)(=O)c2ccc(OC)cc2)c1NC(=O)C1CCCO1` (stereo not drawn) is 898 s; for `CCN1CCCC1CN(CC(=O)N1CCNCC1)S(=O)(=O)c1cc(C)ccc1C` (stereo not drawn) it is 581 s.
The figure for `Cc1noc(-c2nn(C)c3c2CN(C(=O)c2ccccc2Br)CC3)n1` is 725 s; for `CCCN(C)C(=O)C1CCN(c2cn[nH]c(=O)c2)CC1` it is 597 s; for `CC(=O)N1c2ccc(S(=O)(=O)N3CCCCCC3)cc2CC1C(=O)NCCN(C)C` (stereo not drawn) it is 637 s.
The compound `CCCC(=O)NCCc1csc(-c2ccc(Cl)cc2)n1` came in with an RP-LC retention time of 921 s.
The same measure for `CCOC(=O)c1c(C)oc2nc(C)nc(N3CCN(c4ccccc4OC)CC3)c12`: 1020 s; for `Cc1noc(-c2cc(=O)n(CC(=O)Nc3ccc(N(C)C)cc3)c3ccccc23)n1`: 650 s; for `COc1ccc(C)cc1NC(=O)N1CCC(c2cc(N)on2)CC1`: 720 s.
The figure for `Cn1c(N2CCCC(C(=O)N3CCN(c4ccccc4F)CC3)C2)cc(=O)n(C)c1=O` (stereo not drawn) is 765 s; for `COc1cc(NC(=O)N2CCC3(CC2)Nc2ccccc2-n2cccc23)cc(OC)c1OC` it is 920 s.
The same measure for `CCS(=O)(=O)c1nc2ccc(NS(=O)(=O)c3ccc(C(C)C)cc3)cc2s1`: 975 s; for `Cc1cc(-c2nnc(-c3ccccc3)o2)c(C)n1CC(=O)Nc1ccc2c(c1)OCCO2`: 902 s; for `CC(C)NCc1ccc(-c2cccc(Cl)c2)o1`: 691 s.
